Assay results as given in patent US20060069132A1, “Azolecarboxamide herbicides” (priority 2004, published 2006).
Where two headings read alike, the source gives them in different places.

Columns and labels:
giant foxtail [1] = experiment: Test A pre-/postemergence herbicide test; format: in vivo, Setaria faberi; conditions: for pest or weed control at 500 g/ha / pest or weed control at 2000 g/ha: Setaria faberi, 240 h
Summary of the method: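 Sandy loam soil given preemergence directed spray; plants at 2 to 10 cm, one- to two-leaf stage, sprayed to runoff postemergence, compounds in non-phytotoxic solvent with surfactant. Injury rated visually versus untreated controls after about ten greenhouse days, 0 (no effect) to 100 (complete control); dash means not tested.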

giant foxtail [2] = experiment: Test B pre-/postemergence herbicide test; format: in vivo, Setaria faberi; conditions: for pest or weed control at 500 g/ha / pest or weed control at 125 g/ha: Setaria faberi, 336 h
Summary of the method: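 Plants compared with untreated controls 13–15 days post-treatment and given a visual 0–100 injury score. Applications: preemergence to seeds; postemergence at 1- to 4-leaf (2–18 cm); paddy species flooded, 2-leaf stage. Vehicle non-phytotoxic, surfactant included.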

cocklebur = experiment: Test C pre-/postemergence herbicide test; format: in vivo, Xanthium strumarium
Summary of the method: (§1)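 Preemergence: seeds planted and treated with compound in non-phytotoxic solvent with surfactant; postemergence: plants at 2 to 18 cm (1- to 4-leaf stage) sprayed likewise. Kept in greenhouse 12 to 14 days, then visually rated against controls, 0 (no effect) to 100 (complete control).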

corn = experiment: Test C pre-/postemergence herbicide test; format: in vivo, Zea mays
Summary of the method: as §1

kochia = experiment: Test C pre-/postemergence herbicide test; format: in vivo, Kochia scoparia
Summary of the method: as §1

yellow nutsedge = experiment: Test C pre-/postemergence herbicide test; format: in vivo, Cyperus esculentus
Summary of the method: as §1

pigweed = experiment: Test C pre-/postemergence herbicide test; format: in vivo, Amaranthus retroflexus
Summary of the method: as §1

ducksalad = experiment: Test C flooded paddy test; format: in vivo, Heteranthera limosa
barnyardgrass = experiment: Test C flooded paddy test; format: in vivo, Echinochloa crus-galli
Summary of the method: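 Scoring by eye, 12–14 days post-treatment, greenhouse-held plants vs. controls; 0 no effect, 100 complete control. Sprayed at 1–4 leaves (2–18 cm); paddy barnyardgrass at 2 leaves, flooded.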

[3] = Preemergence, 500 g ai/ha, scale 0 to 100, 0 no effect, 100 complete control
[4] = 62 g ai/ha, preemergence, scale 0 to 100
[5] = 125 g ai/ha, scale 0 (no effect) to 100 (complete control), visual, 12 to 14 days, preemergence
[6] = 250 g ai/ha, scale 0-100, preemergence
[7] = 500 g ai/ha, scale 0 to 100 (0 no effect, 100 complete control), visual, 12 to 14 days, preemergence
[8] = 62 g ai/ha, scale 0 to 100 (0 no effect, 100 complete control)
[9] = 125 g ai/ha, scale 0 to 100 (0 no effect, 100 complete control)
[10] = 250 g ai/ha, scale of 0 to 100, 0 is no effect, 100 is complete control
[11] = 500 g ai/ha, visual rating after 12 to 14 days, scale 0 to 100 (0 no effect, 100 complete control)

## CCn1nc(C(C)(C)C)cc1C(=O)Nc1cccc2c1CN(C)C2=O [Compound 55, N-(2,3-dihydro-2-methyl-1-oxo-1H-isoindol-4-yl)-3-(1,1-dimethylethyl)-1-ethyl-1H-pyrazole-5-carboxamide]
Giant foxtail [1]; post-emergence, Postemergence, 500 g ai/ha, 0 to 100 scale, 0 no effect, 100 complete control, read-out: Plant response rating, Foxtail, Giant
  pest or weed control at 500 g/ha: 30%
Giant foxtail [1]; post-emergence, Postemergence, 2000 g ai/ha, 0 to 100 scale, 0 no effect, 100 complete control, read-out: Plant response rating, Foxtail, Giant
  pest or weed control at 2000 g/ha: 80%
Giant foxtail [1]; pre-emergence, Preemergence, 500 g ai/ha, visual rating, 0 to 100 scale (0 no effect, 100 complete control), read-out: Foxtail, Giant plant response rating
  pest or weed control at 500 g/ha: 60%
Giant foxtail [1]; pre-emergence, Preemergence, 2000 g ai/ha, 0 to 100 scale, 0 no effect, 100 complete control, read-out: Foxtail, Giant plant response rating
  pest or weed control at 2000 g/ha: 100%
Giant foxtail [2]; post-emergence, Postemergence, 500 g ai/ha, visual rating after 13 to 15 days, scale 0 (no effect) to 100 (complete control), read-out: Plant response rating, Foxtail, Giant
  pest or weed control at 500 g/ha: 10%
Giant foxtail [2]; post-emergence, postemergence, 125 g ai/ha, visual rating, scale 0 (no effect) to 100 (complete control), read-out: Foxtail, Giant plant response rating
  pest or weed control at 125 g/ha: 0%
Giant foxtail [2]; pre-emergence, Preemergence, 500 g ai/ha, scale 0 to 100, read-out: Foxtail, Giant plant response rating
  pest or weed control at 500 g/ha: 100%
Giant foxtail [2]; pre-emergence, preemergence, 125 g ai/ha, 0 to 100 scale, 0 is no effect, 100 is complete control, read-out: Plant response rating, Foxtail, Giant
  pest or weed control at 125 g/ha: 60%
cocklebur; 62 g ai/ha, preemergence
  Plant response rating (0 = no effect, 100 = complete control), Cocklebur: 0
cocklebur; Xanthium strumarium, pre-emergence, 312 h, 125 g ai/ha, scale 0 (no effect) to 100 (complete control), visual, 12 to 14 days, read-out: Plant response rating, Cocklebur
  pest or weed control at 125 g/ha: 0%
cocklebur; Xanthium strumarium, pre-emergence, 312 h, 250 g ai/ha, scale 0 to 100 (0 no effect, 100 complete control), visual, 12 to 14 days, read-out: Plant response rating, Cocklebur
  pest or weed control at 250 g/ha: 0%
cocklebur; Xanthium strumarium, pre-emergence, 312 h, Preemergence, 500 g ai/ha, scale 0 to 100, 0 no effect, 100 complete control, read-out: Cocklebur plant response rating
  pest or weed control at 500 g/ha: 0%
corn; 62 g ai/ha, preemergence
  Plant response rating (0 = no effect, 100 = complete control), Corn: 0
corn; [3]
  Corn plant response rating: 0
corn; Zea mays, pre-emergence, 312 h, 125 g ai/ha, scale 0 (no effect) to 100 (complete control), visual, 12 to 14 days
  Corn plant response rating (crop injury, 0 = no effect, 100 = complete kill) at 125 g/ha: 0%
corn; Zea mays, pre-emergence, 312 h, 250 g ai/ha, scale 0 to 100 (0 no effect, 100 complete control), visual, 12 to 14 days
  Corn plant response rating (crop injury, 0 = no effect, 100 = complete kill) at 250 g/ha: 0%
kochia; 62 g ai/ha, preemergence
  Plant response rating (0 = no effect, 100 = complete control), Kochia: 25
kochia; Bassia scoparia, pre-emergence, 125 g ai/ha, scale 0 (no effect) to 100 (complete control), visual, 12 to 14 days, read-out: Plant response rating, Kochia
  pest or weed control at 125 g/ha: 80%
kochia; Bassia scoparia, pre-emergence, 250 g ai/ha, scale 0 to 100 (0 no effect, 100 complete control), visual, 12 to 14 days, read-out: Plant response rating, Kochia
  pest or weed control at 250 g/ha: 100%
kochia; [3]
  Kochia plant response rating: 100
Yellow nutsedge; 62 g ai/ha, preemergence
  Plant response rating (0 = no effect, 100 = complete control), Nutsedge, Yellow: 0
Yellow nutsedge; Cyperus, pre-emergence, 125 g ai/ha, scale 0 (no effect) to 100 (complete control), visual, 12 to 14 days, read-out: Plant response rating, Nutsedge, Yellow
  pest or weed control at 125 g/ha: 0%
Yellow nutsedge; Cyperus, pre-emergence, 250 g ai/ha, scale 0 to 100 (0 no effect, 100 complete control), visual, 12 to 14 days, read-out: Plant response rating, Nutsedge, Yellow
  pest or weed control at 250 g/ha: 0%
Yellow nutsedge; [3]
  Nutsedge, Yellow plant response rating: 10
pigweed; 62 g ai/ha, preemergence
  Plant response rating (0 = no effect, 100 = complete control), Pigweed: 95
pigweed; Amaranthus retroflexus, pre-emergence, 125 g ai/ha, scale 0 (no effect) to 100 (complete control), visual, 12 to 14 days, read-out: Plant response rating, Pigweed
  pest or weed control at 125 g/ha: 95%
pigweed; Amaranthus retroflexus, pre-emergence, 250 g ai/ha, scale 0 to 100 (0 no effect, 100 complete control), visual, 12 to 14 days, read-out: Plant response rating, Pigweed
  pest or weed control at 250 g/ha: 95%
pigweed; [3]
  Pigweed plant response rating: 95
ducksalad; Heteranthera limosa, 62 g ai/ha, scale 0 to 100 (0 no effect, 100 complete control), read-out: Ducksalad plant response rating
  pest or weed control at 62 g/ha: 0%
ducksalad; Heteranthera limosa, 125 g ai/ha, scale of 0 to 100, 0 is no effect, 100 is complete control, read-out: Ducksalad plant response rating
  pest or weed control at 125 g/ha: 0%
ducksalad; Heteranthera limosa, 250 g ai/ha, scale of 0 to 100, 0 is no effect, 100 is complete control, read-out: Ducksalad plant response rating
  pest or weed control at 250 g/ha: 55%
ducksalad; Heteranthera limosa, 500 g ai/ha, visual rating after 12 to 14 days, scale 0 to 100 (0 no effect, 100 complete control), read-out: Plant response rating, Ducksalad
  pest or weed control at 500 g/ha: 80%
barnyardgrass; Echinochloa crus-galli, 62 g ai/ha, scale 0 to 100 (0 no effect, 100 complete control), read-out: Barnyardgrass plant response rating
  pest or weed control at 62 g/ha: 0%
barnyardgrass; Echinochloa crus-galli, 125 g ai/ha, scale of 0 to 100, 0 is no effect, 100 is complete control, read-out: Barnyardgrass plant response rating
  pest or weed control at 125 g/ha: 0%
barnyardgrass; Echinochloa crus-galli, 250 g ai/ha, scale of 0 to 100, 0 is no effect, 100 is complete control, read-out: Barnyardgrass plant response rating
  pest or weed control at 250 g/ha: 25%
barnyardgrass; Echinochloa crus-galli, 500 g ai/ha, visual rating after 12 to 14 days, scale 0 to 100 (0 no effect, 100 complete control), read-out: Plant response rating, Barnyardgrass
  pest or weed control at 500 g/ha: 75%

## CCc1nn(C(C)(C)C)cc1C(=O)Nc1cc(C(=O)N(CC)CC)ccc1F [Compound 223]
Giant foxtail [1]; Postemergence, 500 g ai/ha, 0 to 100 scale, 0 no effect, 100 complete control
  Foxtail, Giant plant response rating: 10
Giant foxtail [1]; Postemergence, 2000 g ai/ha, 0 to 100 scale, 0 no effect, 100 complete control
  Plant response rating, Foxtail, Giant: 10
Giant foxtail [1]; Preemergence, 2000 g ai/ha, visual rating, 0 to 100 scale (0 no effect, 100 complete control)
  Foxtail, Giant plant response rating: 90
Giant foxtail [1]; preemergence, 500 g ai/ha, visual injury, 0 to 100 scale (0 no effect, 100 complete control)
  Foxtail, Giant plant response rating: 75
Giant foxtail [2]; 125 g ai/ha, 0 = no effect, 100 = complete control, preemergence
  Foxtail, Giant plant response rating (0 to 100 scale): 10
Giant foxtail [2]; 500 g ai/ha, visual rating, 0 = no effect, 100 = complete control, preemergence
  Plant response rating, Foxtail, Giant: 80
Giant foxtail [2]; postemergence, 125 g ai/ha, visual rating, scale 0 (no effect) to 100 (complete control)
  Foxtail, Giant plant response rating: 10
Giant foxtail [2]; postemergence, 500 g ai/ha, visual rating, scale 0 (no effect) to 100 (complete control)
  Foxtail, Giant plant response rating: 20
cocklebur; [4]
  Plant response rating, Cocklebur: 0
cocklebur; [5]
  Plant response rating, Cocklebur: 0
cocklebur; [6]
  Plant response rating, Cocklebur: 0
cocklebur; [3]
  Cocklebur plant response rating: 0
corn; [4]
  Plant response rating, Corn: 0
corn; [5]
  Plant response rating, Corn: 0
corn; [6]
  Plant response rating, Corn: 5
corn; [7]
  Plant response rating, Corn: 50
kochia; [4]
  Plant response rating, Kochia: 85
kochia; [5]
  Plant response rating, Kochia: 90
kochia; [6]
  Plant response rating, Kochia: 100
kochia; [7]
  Plant response rating, Kochia: 100
Yellow nutsedge; [4]
  Plant response rating, Nutsedge, Yellow: 0
Yellow nutsedge; [5]
  Plant response rating, Nutsedge, Yellow: 0
Yellow nutsedge; [6]
  Plant response rating, Nutsedge, Yellow: 0
Yellow nutsedge; [7]
  Plant response rating, Nutsedge, Yellow: 0
pigweed; [4]
  Plant response rating, Pigweed: 100
pigweed; [5]
  Plant response rating, Pigweed: 100
pigweed; [6]
  Plant response rating, Pigweed: 100
pigweed; [7]
  Plant response rating, Pigweed: 100
ducksalad; [8]
  Ducksalad plant response rating: 0
ducksalad; [9]
  Ducksalad plant response rating: 0
ducksalad; [10]
  Ducksalad plant response rating: 25
ducksalad; [11]
  Plant response rating, Ducksalad: 55
barnyardgrass; [8]
  Barnyardgrass plant response rating: 0
barnyardgrass; [9]
  Barnyardgrass plant response rating: 0
barnyardgrass; [10]
  Barnyardgrass plant response rating: 0
barnyardgrass; [11]
  Plant response rating, Barnyardgrass: 45
